Data set [1] can be described thus: Dynamic vapor sorption/desorption (DVS), hygroscopicity. The class given is physicochemical. On the procedure: The active pharmaceutical ingredient (API), 4-bromo-2,5-dimethoxyphenethylamine hydrochloride, is characterized to evaluate its physical properties. The evaluation is performed by X-ray powder diffraction (XRPD), polarized light microscopy (PLM), differential scanning calorimetry (DSC), thermogravimetry (TG), dynamic vapor sorption/desorption (DVS), and/or solubility testing in organic solvents, water, and mixed solvent systems. XRPD data are used to assess crystallinity. PLM data are used to evaluate crystallinity and particle size/morphology. DSC data are used to evaluate melting point, thermal stability, and crystalline form conversion. TG data are used to evaluate if the API is a solvate or hydrate, and to evaluate thermal stability. DVS data are used to evaluate hygroscopicity of the API and if hydrates can be formed at high relative humidity.
The form characterized in FIGS. 1 and 2 is designated as Form A herein. […] A sharp endotherm at 238° C. in the DSC thermogram is attributed to melting.

A short description of data set [2]: Water activity slurry experiments, 2C-B HCl Form A vs Form C. The following applies: slurry of Form A at ambient temperature. It counts as physicochemical.
Data set [3] is described as follows: Dynamic vapor sorption (DVS) with XRPD of the post-DVS sample. The class given is physicochemical. On the procedure:
Dynamic Vapor Sorption (DVS) analysis was carried out using a TA Instruments Q5000 Dynamic Vapor Sorption analyzer. The instrument was calibrated with standard weights and a sodium bromide standard for humidity. Approximately 10-25 mg of sample was loaded into a metal-coated quartz pan for analysis. The sample was analyzed at 25° C. with a maximum equilibration time of one hour in 10% relative humidity (RH) steps from 5 to 95% RH (adsorption cycle) and from 95 to 5% RH (desorption cycle). The movement from one step to the next occurred either after satisfying the equilibrium criterion of 0.01% weight change or, if the equilibrium criterion was not met, after one hour. The percent weight change values were calculated using Microsoft Excel.
(§1) The DVS analysis was carried out using a TA Instruments Q5000 Dynamic Vapor Sorption analyzer. 13.5 mg of sample was loaded into a metal-coated quartz pan for analysis. After equilibration to 5% relative humidity (RH), the sample was analyzed at 25° C. in 10% RH steps from 5 to 95% RH (adsorption cycle) and from 95 to 5% RH (desorption cycle). The movement from one step to the next occurred either after satisfying the equilibrium criterion of 0.01% weight change in 5 minutes or, if the equilibrium criterion was not met, after 90 minutes. The percent weight change values are calculated using Microsoft Excel®.
as §1, with “DVS analyses were” for “DVS analysis was”, “analyzer. Approximately 7-11” for “analyzer. 13.5”, “equilibration at” for “equilibration to”, “values were” for “values are”
as §1, with “analyzer. Approximately 2” for “analyzer. 13.5”, “equilibration at” for “equilibration to”, “values were” for “values are”

The next data set has as its system TNF-α. Put plainly: LPS-induced TNF-α release ex vivo in whole blood of dosed rats. On the set-up: species or system rat. The following applies: for TNF alpha levels, LPS low dose: LPS 1 μg/mL. The source says:
The bacterial endotoxin lipopolysaccharide (LPS) induces a strong inflammatory response from normal animal immune systems. This response is triggered when LPS is recognized by the innate immune system via the Toll Like Receptor (TLR4) particularly those located on monocytes and macrophages although they are also located on a wide variety of other cell types. Stimulation of the TLR4 receptor leads to recruitment and activation of IL-1R associated kinase 1 (IRAK-1) initiating a series of signalling events in immunoregulatory pathways such as activation of NF kappa B, p38 MAP Kinase, ERK and JNK and AP-1. These changes promote gene transcription and thereby potentiate secretion of pro inflammatory factors such as TNF alpha and other cytokines (Fang et al., 2004).
Determination of the effects of novel agents against LPS-induced TNF alpha release ex vivo provides an assessment of whether the plasma level of compound achieved after administration to whole animal is capable of affecting the inflammatory response.
Dexamethasone disodium phosphate salt was formulated in water to a concentration of 0.6 mg free base/mL to give a dose of 3 mg free base/kg when orally administered in a 5 mL/kg dosing volume. 2C-B hydrochloride was formulated in Vehicle 1 (saline) at concentrations of […]. This provided doses of 0.1 and 1 mg/kg respectively when injected ip in 5 mL/kg dosing volumes. Ex vivo formulation
LPS were dissolved in saline to concentrations of 0.2 and 0.6 mg/mL. This will then be diluted 10 fold in saline to give concentrations of 0.02 and 0.06 mg/mL that will provide concentrations of 1 and 3 μg/mL when 15 uL is added to 285 of whole blood (20 fold dilution).
Twenty four male SD rats (approximately 200 g), were group housed. Animals were maintained under a 12 h light/dark cycle, where temperature and humidity are controlled. Animals were allowed free access to food and water.
Rats were allocated to treatment groups of 6 and habituated to the test room on the day prior to the study. On the test day, rats were dosed orally with either water or dexamethasone 3 mg/kg in 5 mL/kg dosing volumes. Thirty minutes later the animals were dosed intraperitoneally with either saline or 2C-B in 5 mL/kg dosing volumes. After a further 90 minutes terminal blood samples were collected by cardiac puncture under CO2. • Three aliquots, each of 285 μL from each animal's blood sample were pipetted into separate Eppendorf tubes. • Tubes were left for 10 min • Assay tubes will then be mixed gently before adding 15 μL of saline or LPS to give final concentrations of 1 and 3 μg/ml. • After a further gentle mixing, assay tubes were placed in an incubator at 37° C. for 24 h. • At the end of this time, the whole blood aliquots were spun down to plasma. The plasma were then removed and placed in duplicate 96 well plates on dry ice. Plates were stored at −20° C. until analyzed for TNF-α after 10-fold dilution.
The TNF-alpha content of the collected rat plasmas samples were measured using a Rat TNF-alpha Quantikine ELISA Kit (cat no RTA00).
A 1-way ANOVA was conducted across the vehicle and 3 treatment groups (0.1 mg/kg 2C-B IP, 1 mg/kg 2C-B IP, and 3 mg/kg dexamethasone PO) independently for 3 stimulation conditions (no stimulation [saline], 1 μg/mL LPS, and 3 μg/mL LPS). […] Each group was compared to the vehicle group and a p-value for treatment determined by Fishers Least Significant Difference (LSD) test, without statistical penalty for multiple comparisons. […]

For another data set, the system named is Male Sprague-Dawley rats. Put plainly: Rat elevated zero-maze model of anxiety. The class given is in vivo. The source says: The rat zero-maze model is a refined alternative to the plus-maze, the most widely used animal model of anxiety, and consists of an elevated annular platform, divided equally into four quadrants. Two opposite quadrants are enclosed by Perspex walls on both the inner and the outer edges of the platform, while the remaining two opposite quadrants are open being enclosed only by a Perspex “lip”. Animals will show a preference for the closed areas, and avoidance of the open sections is assumed to stem from a rodent's natural aversion to open, exposed spaces. A reduction in the amount of activity on the open areas is considered to reflect an increase in anxiety (shepherd 1994). The ethologically-based behavior rearing was also assessed as an index of anxiety with a decrease in rearing indicative of an […] effect [(a) File 1985, Boissier 1976; (b) File, S. E. (1985). What can be learned from the effects of benzodiazepines on exploratory behavior? Neuroscience & Biobehavioral Reviews, 9(1), 45-54. doi:10.1016/0149-7634(85)90031-4; (c) Boissier, J. R., P. Simon and P. Soubrie. New approaches to the study of anxiety and anxiolytic drugs in animals. […]
Subjects were weighed and tail marked before being injected. After a specified pre-treatment time, subjects were placed in a closed quadrant and a 5-min test period were recorded on videotape for subsequent analysis. […] Animals are scored as being in the open area when all four paws were in an open quadrant and in the closed area only when all four paws have passed over the open-closed divide. […]
30 male Sprague-Dawley rats in treatment groups of 5, was intraperitoneally dosed with either Vehicle 1 (saline) or 2C-B at 1 of 4 dose levels (0.1, 1, 2 & 5 mg/kg) or chlordiazepoxide (6 mg/kg) in 5 mL/kg injection volumes. Thirty min later at T=0, rats were individually placed in a closed arm of the zero-maze and behavior was assessed by a “blind” observer using remote video monitoring over the subsequent 5 min. […]
Data was analysed with Statistica software (Statsoft USA version 10.0). […]

Entries after “also recorded” stand apart in the source; their conditions may differ.

In the case of `COc1cc(CCN)c(OC)cc1Br.Cl` [Form A, 4-bromo-2,5-dimethoxyphenethylamine hydrochloride], the “hygroscopicity based on DVS data” value is “slightly hygroscopic” in data set [1] and “slightly hygroscopic” in data set [3] (25° C., 5 to 95% RH). The “Form change after moisture sorption/desorption (DVS)” value in data set [1] (loses all the gained moisture) was “without form change”. For the same molecule, in data set [2] (hydrochloride), the “water activities at which the form was obtained or remained unchanged” value is on record as no more than 0.5. Further, in data set [3] (desorption 95 to 5% RH), the “behaviour on desorption / form change by XRPD of post-DVS sample” value is recorded as “loses all the gained moisture without form change”.
Turning to `COc1cc(CCN)c(OC)cc1Br.Cl` [Form C, 4-bromo-2,5-dimethoxyphenethylamine HCl], in data set [2] (HCl), the “water activities at which the form was obtained or remained unchanged” value was no less than 0.6.
On to `COc1cc(CCN)c(OC)cc1Br` [2C-B, 4-bromo-2,5-dimethoxyphenethylamine], for which the results for the “TNF alpha levels, LPS low dose” value in the data set with TNF-α (0.1 mg/kg ip) and in the data set on TNF-α (1 mg/kg ip) were “no difference vs placebo” and “trended towards significance”, respectively. Moreover, the “TNF alpha levels, high level of LPS” value in the data set with TNF-α (1 mg/kg ip, LPS 3 μg/ml, 1-way ANOVA) is reported as “significant decrease in TNF alpha levels”. For the same molecule, the “TNF alpha levels in the absence of LPS” value in the data set with TNF-α (no stimulation (saline), 2C-B 0.1 and 1 mg/kg ip, dexamethasone 3 mg/kg po) was “no effect”. Moreover, the “amount of TNF alpha released in response to LPS” value with TNF-α (pre-treatment in vivo ip, LPS 1 and 3 μg/mL) is recorded as “reduced the amount of TNF alpha released in response to LPS”. The frequency of rearing entry with Male Sprague-Dawley rats (ip 1 mg/kg, 2 mg/kg, and 5 mg/kg doses) was “decreased the frequency of rearing as effectively as the benzodiazepine chlordiazepoxide”; in the data set with Male Sprague-Dawley rats (ip 5 mg/kg), “greatest numerical effect”; with Male Sprague-Dawley rats (ip 0.1, 1, 2 & 5 mg/kg, 30 min before 5-min test) it was “significantly reduced the number of rears in a dose dependent manner; also recorded: as effective as the chlordiazepoxide control”.

(Values after patent US20230150920A1, “SALTS AND SOLID FORMS OF 4-BROMO-2,5-DIMETHOXYPHENETHYLAMINE” (priority 2021, published 2023).)
